The subject of test [1] is C. albicans Darlington strain. The test can be described thus: Agarose disk diffusion assay, Darlington strain. The format is cell-based, Candida albicans. To be noted: no efflux pump inhibitor. How it is done:
Agarose diffusion assays were carried out as described previously using the Darlington strain of C. albicans (Pfizer Ltd., Sandwich, UK) and the control C. albicans database strain SC5314, which is not resistant to azoles. The Cdr1p-specific inhibitor RC21v3 and the CaMdr1p-specific inhibitor MCC1189 (MicroCombiChem, Wiesbaden, Germany), included in the assay medium at 6 µM, were used to investigate the contribution of efflux pumps to azole resistance in the Darlington strain [49, 50, 51].

Test [2] concerns S. cerevisiae strain AD3Δ ScErg11 Y140H expressing ScLDM6×His Y140H. Description: Broth microdilution drug susceptibility assay (MIC80), strain AD3Δ ScErg11 Y140H. As to conditions: Saccharomyces cerevisiae; strain Y140H; 48 h, 30 °C, pH 6.8; mean (± SEM), n = 3. The format is cell-based, Saccharomyces cerevisiae. The method, then:
(§1) The native ScERG11 gene in yeast cells containing mutant ScERG11-6×His constructs in the PDR5 locus was disrupted by homologous recombination with a cassette encoding the His1 selection marker and sequences homologous with the regions bordering the endogenous ScERG11 ORF to create strains AD3Δ ScErg11 Y140H, AD3Δ ScErg11 I471T and AD3Δ ScErg11Y140H I471T [43]. Transformants were selected on SD-His agar plates incubated at 30 °C for 48–72 h. Genomic DNA was extracted, and DNA sequencing as above was used to confirm deletion of the native ERG11. Strain AD3Δ ScErg11 (denoted as AD3Δ), which overexpresses wild-type ScLDM6×His from the PDR5 locus and has the native ScERG11 gene disrupted, was used as a control strain [43].
(§2) Azole susceptibility was measured as the mean drug concentration required to inhibit 80% of yeast growth (MIC80) compared to a non-drug control, using a standard broth microdilution assay. Serial dilutions of short- (FLC and VCZ), medium- (VT-1161), and long-tailed (ITC and PCZ) azole drugs, and the control drugs micafungin (MCF) and amphotericin B (AMB), were prepared in a 96-well microtiter plate in complete synthetic media lacking uracil, buffered to pH 6.8 [34]. Control and test cells were seeded at an optical density of 600 nm (OD600) of 0.005 (~1.5 × 10^4 colony forming units). After incubation for 48 h at 30 °C with constant agitation (200 rpm), the OD600 nm of each well was measured using a Synergy 2 multi-mode plate reader (BioTek Instruments, Winooski, VT, USA). The experiment was repeated three times (a total of nine measurements for the response of each strain to each drug). GraphPad Prism 5.0 software was used for statistical analysis, using a one-way analysis of variance with a Bonferroni post-hoc test. The statistical significance of comparisons was accepted when p < 0.05.

The subject of test [3] is S. cerevisiae strain AD2Δ (native wild-type ScLDM). The test can be described thus: Broth microdilution drug susceptibility assay (MIC80), host strain AD2Δ. The format is cell-based. As to conditions: Saccharomyces cerevisiae; strain AD2Δ; 48 h, 30 °C, pH 6.8; mean (± SEM), n = 3; read-out: MIC80. How it is done: Yeast strains used in this study (Supplementary Table S1) were prepared using the AD2Δ strain of S. cerevisiae as a host, using an established protocol. AD2Δ is hypersensitive to xenobiotics due to the deletion of seven major ABC transporters, including those responsible for the efflux of azole drugs. It is also deleted of the PDR3 transcriptional regulator, but contains the gain-of-function Pdr1-3 transcriptional regulator mutation that leads to constitutive overexpression from the PDR5 locus.
as §2

The subject of test [4] is S. cerevisiae strain AD3Δ ScErg11 I471T expressing ScLDM6×His I471T. Description: Broth microdilution drug susceptibility assay (MIC80), strain AD3Δ ScErg11 I471T. The format is cell-based, Saccharomyces cerevisiae. To be noted: for MIC80: Saccharomyces cerevisiae, strain I471T, 48 h, 30 °C, pH 6.8, mean (± SEM), n = 3; for increased susceptibility compared with AD3Δ: strain AD3Δ ScErg11 I471T, not corrected for expression. How it is done: as §1, §2

Test [5] concerns S. cerevisiae strain AD3Δ ScErg11 Y140H I471T expressing ScLDM6×His Y140H I471T. The test can be described thus: Broth microdilution drug susceptibility assay (MIC80), strain AD3Δ ScErg11 Y140H I471T. It counts as cell-based, Saccharomyces cerevisiae. To be noted: Saccharomyces cerevisiae; strain Y140H + I471T; 48 h, 30 °C, pH 6.8; mean (± SEM), n = 3. How it is done: as §1, §2
Test [6] deals with S. cerevisiae test and control strains (AD2Δ, AD3Δ and mutants). The test can be described thus: Broth microdilution MIC80, comparison across the various cell types tested. The format is cell-based, Saccharomyces cerevisiae. As to conditions: p > 0.05. How it is done: as §2
Test [7] has as its system S. cerevisiae strain AD3Δ ScErg11 (AD3Δ) overexpressing wild-type ScLDM6×His. The test can be described thus: Broth microdilution drug susceptibility assay (MIC80), strain AD3Δ ScErg11. It counts as cell-based, Saccharomyces cerevisiae. As to conditions: for MIC80: Saccharomyces cerevisiae, strain AD3Δ, 48 h, 30 °C, pH 6.8, mean (± SEM), n = 3, read-out: MIC80; for effect of ScLDM6×His overexpression on susceptibility to control antifungals: strain AD3Δ vs AD2Δ. How it is done: as §1, §2

The test system of the next test is CaLDM I471T. More on the design: method as in PMID 20625155. To be noted: detergent solubilized CaLDM I471T single-mutation; cited from earlier work.

Each structure is given as a SMILES string. Starred links: 1 amine or outer side, 2 acyl side, 3 side chain; linkers in the order of their positions; H or OH if unused. Positions of bridges follow the written chain, without caps; N, C: chain ends. Non-standard residues stand in square brackets, D forms with d. Residues, ends and D or L forms follow the SMILES beside them. *: point of attachment. hTyr(3S-OH,4S-OH,3'-OSO3H) = N[C@H](C(=O)O)[C@H](O)[C@@H](O)c1ccc(O)c(OS(=O)(=O)O)c1; Orn(4R-OH,5R-OH) = O=C([C@H](C[C@@H](O)[C@@H](O)N[*:3])N[*:1])[*:2]; Pro(3S-OH,4S-Me) = C[C@H]1CN[C@H](C(=O)O)[C@H]1O; X1 = CCCCCOc1ccc(-c2cc(-c3ccc(C(=O)*)cc3)no2)cc1; Gln(3R-OH) = NC(=O)C[C@@H](O)[C@H](N)C(=O)O; Hyp = O=C(O)[C@@H]1C[C@@H](O)CN1

As to `C[C@@H]1[C@H](O)[C@@H](C)/C=C/C=C/C=C/C=C/C=C/C=C/C=C/[C@H](O[C@@H]2O[C@H](C)[C@@H](O)[C@H](N)[C@@H]2O)C[C@@H]2O[C@](O)(C[C@@H](O)C[C@@H](O)[C@H](O)CC[C@@H](O)C[C@@H](O)CC(=O)O[C@H]1C)C[C@H](O)[C@H]2C(=O)O` [AMB, amphotericin B], the “agarose diffusion susceptibility” value in test [1] is “mild resistance”. The MIC80 worked out at 2.19 µM in test [2]; 2.18 µM in test [3]; 2.26 µM in test [4]; 2.14 µM in test [5]; 2.34 µM in test [7]. Besides, the “increased susceptibility compared with AD3Δ” value in test [4] is “not”. Also, the “differences between MIC80s for the various cell types tested” value in test [6] is “no statistically significant differences”. In test [7], the “effect of ScLDM6×His overexpression on susceptibility to control antifungals” value is listed as “did not modify susceptibility”.

For `CCCCCOc1ccc(-c2cc(-c3ccc(C(=O)N[C@H]4C[C@@H](O)[C@@H](O)NC(=O)[C@@H]5[C@@H](O)[C@@H](C)CN5C(=O)[C@H]([C@H](O)CC(N)=O)NC(=O)[C@H]([C@H](O)[C@@H](O)c5ccc(O)c(OS(=O)(=O)O)c5)NC(=O)[C@@H]5C[C@@H](O)CN5C(=O)[C@H]([C@@H](C)O)NC4=O)cc3)no2)cc1` [MCF, micafungin] (X1-[Orn(4R-OH,5R-OH)]T[Hyp][hTyr(3S-OH,4S-OH,3'-OSO3H)][Gln(3R-OH)][Pro(3S-OH,4S-Me)]; lactam 1-C), the MIC80 came to 0.166 µM in test [2], 0.174 µM in test [3], 0.164 µM in test [4] and 0.146 µM in test [7]. In addition, the “increased susceptibility compared with AD3Δ” value in test [4] is on record as “not”. The MIC in test [5] stood at 0.162 µM. Further, the “differences between MIC80s for the various cell types tested” value in test [6] is on record as “no statistically significant differences”. Also, the “effect of ScLDM6×His overexpression on susceptibility to control antifungals” value in test [7] is “did not modify susceptibility”.

Regarding `CC(C)=CCC[C@@H](C)[C@H]1CC[C@@]2(C)C3=C(CC[C@]12C)[C@@]1(C)CC[C@H](O)C(C)(C)[C@@H]1CC3` [lanosterol], in the test with CaLDM I471T, the “higher affinity for the endogenous substrate than the wild-type protein” value was 2.4 fold.
